From patent US12054498B2, “Heteroaromatic macrocyclic ether chemotherapeutic agents” (Nuvalent, Inc., priority 2020, dated 2024)

Columns and labels:
ROS1-G2032R = biological target: T1, ROS1-G2032R (Homo sapiens, UniProt P08922, G2032R); experiment: Biochemical kinase assay, ROS1-G2032R kinase domain; settings: apparent inhibitory constant, Morrison equation; ATP 2 mM in substrate solution; read-out: ROS1-G2032R Ki^app
T1 construct: purchased SignalChem R14-12BG
Procedure: (§1) First, 250 nL of compound dissolved in DMSO (100-fold of the desired concentration) was dispensed into a 384-well plate. A 12.5 μL substrate solution containing ATP (2 mM) and fluorogenic phosphorylation substrate AQT0101 (26 μM for ALK and ROS1, AssayQuant) or AQT0104 (26 μM for TRKA, AssayQuant) in buffer (50 mM HEPES pH 7.5, 0.01% Brij-35, 0.5 mM EGTA, 10 mM MgCl2) was added and mixed thoroughly. […] The plate was sealed and read by SpectraMax Paradigm at λ=485 nm every 2 minutes for 120 minutes at 30° C. Initial rates of reaction (v) were calculated from the change in fluorescence intensity over time during the initial, linear portion of the reaction. Finally, apparent inhibitory constants (Ki^app) were determined from regression of v and I (inhibitor concentration) to Morrison Equation (E=enzyme concentration): […]

[1] = biological target: T2, Ba/F3 cells EML4-ALK L1196M/G1202R (variant 1) (Homo sapiens, UniProt Q9UM73, G1202R/L1196M); experiment: Ba/F3 cell proliferation assay, EML4-ALK L1196M/G1202R (variant 1); format: cell-based; settings: 72 hours, CellTiter-Glo
T2 construct: echinoderm microtubule-associated protein-like 4 (EML4) gene and the ALK tyrosine kinase domain; host or cells: Ba/F3 (RIKEN), retroviral pMSCV-puro; the other entry of the earlier key: EML4 (Q9HC35, Echinoderm microtubule-associated protein-like 4)
From the text: (§2) Genes encoding CD74-ROS1 wild-type (wt), CD74-ROS1 G2032R, CD74-ROS1 S1986F, CD74-ROS1 L2026M, CD74-ROS1 D2033N, EML4-ALK wt (variant 1), EML4-ALK G1202R (variant 1), EML4-ALK L1196M/G1202R (variant 1), EML4-ALK G1202R/G1269A (variant 1), EML4-ALK G1202R/L1198F (variant 1), and TPM3-TRKA were synthesized at GeneRay, cloned into the retroviral construct pMSCV-puro (Biovector), and packaged into retroviral particles. The virus was used to infect Ba/F3 cells (RIKEN) at multiplicity of infection=1 for 1 day. Infected cells were rescued in media (RPMI-1640 with 10% fetal bovine serum and 1% streptomycin and penicillin) supplemented with mouse IL-3 (10 ng/mL) for 2 days, and stable cell lines were selected by IL-3 withdrawal and puromycin (0.8 μg/mL) for 7 days. Monoclones were selected by single-cell dilution in IL-3-free medium containing puromycin (0.8 μg/mL). Transformation of desired genes was confirmed by Sanger sequencing and western blot using the following antibodies: ROS1 (CST #3287), ALK (CST #3633), and pan-TRK (Abcam #76291).
(§3) Cell Proliferation Assay Stable cells were plated at 1,000 cells/well (40 μL) in a 384-well plate for 1 day.
(§4) Test compounds (40 nL) were then added in a 3-fold dilution series using the TECAN EVO200 liquid handler and incubated for 72 hours. Plates were equilibrated at room temperature for 15 minutes followed by addition of 40 μL CellTiter-Glo reagent (Promega).
(§5) Luminescence was measured on a plate reader. Half-maximal inhibitory concentration (IC50) was calculated from percent inhibition and inhibitor concentration using four-parameter logistic regression. […] (nd=not determined).

TRKA-wt = biological target: T3, TRKA-wt (Homo sapiens, UniProt P04629); experiment: Biochemical kinase assay, TRKA-wt kinase domain; settings: apparent inhibitory constant, Morrison equation; ATP 2 mM in substrate solution; read-out: TRKA-wt Ki^app
T3 construct: or TRKA-wt (1 nM, BPS Bio, 40280) kinase domains in buffer; purchased BPS Bio 40280
Procedure: (§6) First, 250 nL of compound dissolved in DMSO (100-fold of the desired concentration) was dispensed into a 384-well plate. A 12.5 μL substrate solution containing ATP (2 mM) and fluorogenic phosphorylation substrate AQT0101 (26 μM for ALK and ROS1, AssayQuant) or AQT0104 (26 μM for TRKA, AssayQuant) in buffer (50 mM HEPES pH 7.5, 0.01% Brij-35, 0.5 mM EGTA, 10 mM MgCl2) was added and mixed thoroughly. Then, a 12.5 μL kinase solution containing ALK-wt (1.5 nM, Carna, 08-518), ALK ALK L1196M/G1202R (3 nM, SignalChem, A19-12NG), ROS1-wt (0.6 nM, Carna, 08-163), ROS1-G2032R (0.5 nM, SignalChem, R14-12BG), or TRKA-wt (1 nM, BPS Bio, 40280) kinase domains in buffer ([…] HEPES pH 7.5, 0.01% Brij-35, 2% glycerol, 0.4 mg/mL BSA, 0.5 mM EGTA, and 10 mM MgCl2) was added and mixed thoroughly. The plate was sealed and read by SpectraMax Paradigm at λ=485 nm every 2 minutes for 120 minutes at 30° C. Initial rates of reaction (v) were calculated from the change in fluorescence intensity over time during the initial, linear portion of the reaction. Finally, apparent inhibitory constants (Ki^app) were determined from regression of v and I (inhibitor concentration) to Morrison Equation (E=enzyme concentration): […]

[2] = system: TPM3-NTRK1-wt IC50 / primary target IC50 (e.g. CD74-ROS1-wt); experiment: TRKA selectivity in Ba/F3 cells (TRKA potency divided by primary target potency); format: cell-based; settings: TRKA potency / EML4-ALK-L1196M-G1202R potency
Procedure: TRKA selectivity was calculated by dividing a compound's TRKA potency by its primary target potency (e.g. TPM3-NTRK1-wt IC50/CD74-ROS1-wt IC50). Compound selectivity can be interpreted by binning ratio values: bin A for very high selectivity, ratio >30-fold; bin B for high selectivity, ratio >10-fold; bin C for moderate selectivity, ratio ≥1; and bin D for low selectivity, ratio <1. […] (nd=not determined).

ALK-wt = biological target: T4, ALK-wt (Homo sapiens, UniProt Q9UM73); experiment: Biochemical kinase assay, ALK-wt kinase domain; settings: apparent inhibitory constant, Morrison equation; ATP 2 mM in substrate solution; read-out: ALK-wt Ki^app
T4 construct: purchased Carna 08-518
Procedure: as §6

Ba/F3 cells TPM3-TRKA = biological target: T5, Ba/F3 cells TPM3-TRKA (Homo sapiens, UniProt P04629); experiment: Ba/F3 cell proliferation assay, TPM3-TRKA; format: cell-based; settings: 72 hours, CellTiter-Glo, read-out: TPM3-NTRK1-wt IC50
T5 construct: host or cells: Ba/F3 (RIKEN), retroviral pMSCV-puro; the other entry of the earlier key: TPM3 (P06753, Tropomyosin alpha-3 chain)
From the text: as §2, §3, §4, §5

ALK L1196M/G1202R = biological target: T6, ALK L1196M/G1202R (Homo sapiens, UniProt Q9UM73, G1202R/L1196M); experiment: Biochemical kinase assay, ALK L1196M/G1202R kinase domain; settings: apparent inhibitory constant, Morrison equation; ATP 2 mM in substrate solution; read-out: ALK-L1196M-G1202R Ki^app
T6 construct: purchased SignalChem A19-12NG
Procedure: as §6

ROS1-wt = biological target: T7, ROS1-wt (Homo sapiens, UniProt P08922); experiment: Biochemical kinase assay, ROS1-wt kinase domain; settings: apparent inhibitory constant, Morrison equation; ATP 2 mM in substrate solution; read-out: ROS1-wt Ki^app
T7 construct: purchased Carna 08-163
Procedure: as §1

[3] = biological target: T8, Ba/F3 cells EML4-ALK wt (variant 1) (Homo sapiens, UniProt Q9UM73); experiment: Ba/F3 cell proliferation assay, EML4-ALK wt (variant 1); format: cell-based; settings: 72 hours, CellTiter-Glo
T8 construct: echinoderm microtubule-associated protein-like 4 (EML4) gene and the ALK tyrosine kinase domain; host or cells: Ba/F3 (RIKEN), retroviral pMSCV-puro; the other entry of the earlier key: EML4 (Q9HC35, Echinoderm microtubule-associated protein-like 4)
From the text: as §2, §3, §4, §5

T6 sequence (Q9UM73 1116-1392 L1196M/G1202R limits assumed): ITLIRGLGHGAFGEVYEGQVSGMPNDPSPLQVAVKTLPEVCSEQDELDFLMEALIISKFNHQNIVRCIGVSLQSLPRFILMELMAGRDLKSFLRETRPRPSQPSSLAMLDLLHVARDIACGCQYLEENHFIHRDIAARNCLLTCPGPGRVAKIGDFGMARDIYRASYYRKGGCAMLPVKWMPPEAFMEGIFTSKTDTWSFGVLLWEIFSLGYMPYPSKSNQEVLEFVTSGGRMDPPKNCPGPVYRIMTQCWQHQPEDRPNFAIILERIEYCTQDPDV
T5 sequence (P04629 510-796 limits assumed): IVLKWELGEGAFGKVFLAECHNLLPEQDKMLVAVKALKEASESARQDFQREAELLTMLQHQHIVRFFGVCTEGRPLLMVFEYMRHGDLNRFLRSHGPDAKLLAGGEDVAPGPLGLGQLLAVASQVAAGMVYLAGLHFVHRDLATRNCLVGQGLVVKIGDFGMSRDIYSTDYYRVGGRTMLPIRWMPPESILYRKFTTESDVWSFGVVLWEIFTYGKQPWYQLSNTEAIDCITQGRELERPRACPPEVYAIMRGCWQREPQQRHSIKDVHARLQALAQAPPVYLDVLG
T4 sequence (Q9UM73 1116-1392 limits assumed): as the sequence (Q9UM73 1116-1392 L1196M/G1202R limits assumed) above, with M81L, R87G counted along it
T2 sequence (Q9UM73 with tags, fused parts or gaps L1196M/G1202R): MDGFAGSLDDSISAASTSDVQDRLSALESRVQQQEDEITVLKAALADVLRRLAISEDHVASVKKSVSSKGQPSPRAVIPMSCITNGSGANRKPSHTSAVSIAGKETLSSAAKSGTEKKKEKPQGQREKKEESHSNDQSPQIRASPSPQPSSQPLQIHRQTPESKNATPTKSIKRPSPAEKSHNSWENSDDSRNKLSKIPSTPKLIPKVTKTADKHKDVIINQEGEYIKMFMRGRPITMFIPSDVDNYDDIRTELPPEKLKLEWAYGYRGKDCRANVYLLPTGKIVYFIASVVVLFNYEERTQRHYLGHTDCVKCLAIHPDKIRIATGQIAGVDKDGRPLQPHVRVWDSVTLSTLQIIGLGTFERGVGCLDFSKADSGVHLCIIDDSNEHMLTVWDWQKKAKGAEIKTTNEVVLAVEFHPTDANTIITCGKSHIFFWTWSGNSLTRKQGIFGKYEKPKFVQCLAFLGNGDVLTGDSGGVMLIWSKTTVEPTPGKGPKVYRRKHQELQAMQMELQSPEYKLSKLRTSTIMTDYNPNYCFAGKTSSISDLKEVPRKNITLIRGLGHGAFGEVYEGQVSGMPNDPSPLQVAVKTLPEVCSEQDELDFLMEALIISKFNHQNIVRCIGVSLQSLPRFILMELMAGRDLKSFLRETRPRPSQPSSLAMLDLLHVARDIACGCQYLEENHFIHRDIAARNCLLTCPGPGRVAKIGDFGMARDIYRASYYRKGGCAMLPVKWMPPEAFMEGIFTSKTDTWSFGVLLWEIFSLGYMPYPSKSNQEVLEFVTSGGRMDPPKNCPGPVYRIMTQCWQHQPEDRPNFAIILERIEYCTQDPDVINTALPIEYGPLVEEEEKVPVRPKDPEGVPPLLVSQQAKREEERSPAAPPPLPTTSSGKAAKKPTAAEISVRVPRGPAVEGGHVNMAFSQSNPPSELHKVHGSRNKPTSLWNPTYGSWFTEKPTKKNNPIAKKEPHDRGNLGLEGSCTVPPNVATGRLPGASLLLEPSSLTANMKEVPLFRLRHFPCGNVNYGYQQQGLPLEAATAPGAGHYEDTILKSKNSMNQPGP
T3 sequence (P04629 510-781 limits assumed): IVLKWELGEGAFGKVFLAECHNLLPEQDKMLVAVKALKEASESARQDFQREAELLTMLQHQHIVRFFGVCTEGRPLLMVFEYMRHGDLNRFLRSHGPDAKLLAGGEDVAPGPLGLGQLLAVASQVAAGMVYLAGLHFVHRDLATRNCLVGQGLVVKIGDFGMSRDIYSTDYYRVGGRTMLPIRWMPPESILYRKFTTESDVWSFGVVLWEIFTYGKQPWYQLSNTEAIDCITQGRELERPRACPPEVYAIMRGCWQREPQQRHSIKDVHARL
T7 sequence (P08922 1945-2222 limits assumed): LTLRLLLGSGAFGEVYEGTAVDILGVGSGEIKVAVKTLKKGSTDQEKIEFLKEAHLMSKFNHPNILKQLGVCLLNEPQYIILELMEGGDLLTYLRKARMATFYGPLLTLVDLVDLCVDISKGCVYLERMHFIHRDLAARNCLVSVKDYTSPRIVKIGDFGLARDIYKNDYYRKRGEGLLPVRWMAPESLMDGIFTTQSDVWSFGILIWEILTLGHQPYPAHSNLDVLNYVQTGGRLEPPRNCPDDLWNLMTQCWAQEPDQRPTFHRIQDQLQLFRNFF
T8 sequence (Q9UM73 with tags, fused parts or gaps): as the sequence (Q9UM73 with tags, fused parts or gaps L1196M/G1202R) above, with M635L, R641G counted along it
T1 sequence (P08922 1945-2222 G2032R limits assumed): as the sequence (P08922 1945-2222 limits assumed) above, with G88R counted along it

Row | Compound | Ki (ROS1-G2032R) | IC50 [1] | Ki (TRKA-wt) | TPM3-NTRK1-wt/EML4-ALK-L1196M-G1202R selectivity ratio [2] | Ki (ALK-wt) | IC50 (Ba/F3 cells TPM3-TRKA) | Ki (ALK L1196M/G1202R) | Ki (ROS1-wt) | IC50 [3]
1 | Cc1nn(CC2CC2)c2c1Cc1nn(C)nc1-c1ccc(F)cc1[C@@H](CO)Oc1cc-2cnc1N [Example 96, [(19S)-22-amino-3-(cyclopropylmethyl)-16-fluoro-5,10-hexaazapentacyclo[19.3.1.0^2,^6.0^8,^12.0^13,^18]pentacosa-1(24),2(6),4,8,11,13,15,17,21(25),22-decaen-19-yl]methanol] | < 50 nM | 50 to 500 nM | > 500 nM | A (bin A for very high selectivity, ratio >30-fold) | < 50 nM | > 500 nM | < 50 nM | < 50 nM | –
2 | CCn1ncc2c1-c1cnc(N)c(c1)O[C@H](C)c1cc(F)ccc1-c1nn(C)nc1C2 [Example 5, (19R)-3-ethyl-16-fluoro-10,19-dimethyl-20-oxa-3,4,9,10,11,23-hexaazapentacyclo[19.3.1.0^2,^6.0^8,^12.0^13,^18]pentacosa-1(24),2(6),4.8,11,13,15,17,21(25),22-decaen-22-amine] | – | 0.1 to 50 nM | 50 to 500 nM | – | < 50 nM | 50 to 500 nM | < 50 nM | – | 0.1 to 50 nM
